Here are results for 62 molecules from US20250388592A1 (REMYND N.V., priority 2022, published 2025).

The structures appear in SMILES notation.

The assay has as its system M17_3TAU(P301L) cells. Nature of the assay: TAU-induced cytotoxicity (LDH) in the neuroblastoma tauopathy model. The format is cell-based. To be noted: Homo sapiens, 168 h, inhibition of TAU-induced toxicity, 7 days retinoic acid differentiation, LDH readout. From the text:
A TAU expression plasmid was constructed by sub-cloning the cDNA encoding for human TAU-P301L protein, wherein proline at position 301 is substituted by a leucine residue, into mammalian expression vector pcDNA3.1 resulting in the plasmid pcDNA3.1-TAUP301L. Plasmids pcDNA3.1 and pcDNA3.1-TAU P301L were transfected into human neuroblastoma cells (BE-M17; ATCC No. CRL-2267™) using lipofectamine reagent and subsequently, independent clonal cell lines with the plasmids stably integrated into the genome were selected by antibiotic resistance selection (Geneticin (G418)), resulting in cell lines M17.pcDNA3 and M17_3TAUP301L. Expression of the TAUP301 L gene in the M17_3TAUP301 L cells was confirmed by Western blot analysis.
Differentiation of the cells with RA leads to phosphorylation and subsequent aggregation of TAU, inducing a tauopathy in these cells. Cytotoxicity of cells was measured by quantification of lactate dehydrogenase (LDH) levels. In dead cells LDH is leaked out of the cells into the medium due to a loss of plasma-membrane integrity.
Briefly, 3 days preceding the experiment pre-cultures of M17.pcDNA3 and M17_3TAU(P301L) cells were prepared, starting from a stock culture, at a density of 50.000-100.000 cells/cm2 in detection medium (Optimem Reduced Serum without phenol red (Gibco, Cat. 31985-047) supplemented with 1% fetal calf serum (FCS), 1 mM sodium pyruvate, 1×non-essential amino acids (NEAA), 500 μg/ml G418 and 0.5×antibiotic/antimycotic (ABAM)). At the day of the experiment these precultures were diluted to ˜[…] in detection medium without FCS and 60 μL of this suspension is dispensed per well into a 96-well microtiter plate. After 3 hours of incubation at 37° C./5% C02 an equal volume of detection medium containing 2.5 μM RA was added and subsequently incubated for 7 days at 37° C./5% CO2. After 7 days, LDH activity was determined using the Promega Cytotox 96 Non-Radioactive cytotoxicity assay (Cat. G1780), according the manufacturer's instructions. Cytotoxicity is measured as the ratio of LDH increase in the supernatant divided by the LDH increase in the total cell suspension (sum of the LDH measured in cells and supernatant). Toxicity was determined after 7 days of differentiation with retinoic acid in M17_3TAU(P301 L) cells compared to M17.pcDNA3 cells.
The M17_3TAU(P301L) cell line makes it possible to assess the ability of novel compounds to inhibit TAU-induced cytotoxicity. […] Compounds were tested for their ability to hamper TAU-induced toxicity at different concentrations, ranging from low non-effective concentrations to high potent concentrations. Afterwards, the dose-dependent inhibition curve was used to calculate their EC50 (Table 3B).

Broadly, the EC50 is the concentration at which the effect is half-maximal. Lower therefore signals an effect from little substance.

In turn, `CN(Cc1ccccc1)C1CC2(CC(NC(=O)Cc3ccc(F)cc3)C2)C1` (centres unmarked) [Cpd B067, N-(6-(benzyl(methyl)amino)spiro[3.3]heptan-2-yl)-2-(4-fluorophenyl)acetamide] had an EC50 of 3.54 nM. For the molecule `CN(Cc1ccccc1)C1CC2(CC(NC(=O)Cc3ccc(Cl)cc3)C2)C1` (centres unmarked) [Cpd B068, N-(6-(benzyl(methyl)amino)spiro[3.3]heptan-2-yl)-2-(4-chlorophenyl)acetamide], the EC50 was found to be 13.4 nM. Turning to `COc1cccc(CN2CC3(C2)CN(C(=O)COC2CCCCC2)C3)c1` [Cpd B070], the half-maximal effective concentration (EC50) came out at 54 nM.

Consider `COc1cccc(CN2CC3(C2)CN(C(=O)CCC2CCCC2)C3)c1` [Cpd B071], for which the response was half-maximal at 2.96 nM (EC50). For the molecule `COc1cccc(CN2CC3(C2)CN(C(=O)CC2CCCCC2)C3)c1` [Cpd B073], the response was half-maximal at 5 nM (EC50). `COc1cccc(CN2CC3(C2)CN(C(=O)CC2CCC(F)(F)CC2)C3)c1` [Cpd B074] displayed an EC50 of 3.61 nM. Turning to `COc1cccc(CN2CC3(C2)CN(C(=O)CN(C)c2ccccc2)C3)c1` [Cpd B075], the EC50 was determined as 61.3 nM.

Take `Cc1cccnc1CN1CC2(C1)CN(C(=O)Cc1ccc(F)c(C(F)(F)F)c1)C2` [Cpd B077]: the EC50 turned out to be 3.68 nM. `Cc1cccnc1CN1CC2(C1)CN(C(=O)Cc1ccc(C(F)(F)F)cc1)C2` [Cpd B078] came in with a half-maximal effective concentration (EC50) of 12.6 nM. Take `Cc1cccnc1CN1CC2(C1)CN(C(=O)Cc1cccc(C(F)(F)F)c1)C2` [Cpd B079]: the 50% effective concentration (EC50) stood at 13.4 nM. `Cc1cccnc1CN1CC2(C1)CN(C(=O)CCC1CCCCC1)C2` [Cpd B081]: the EC50 was 9.69 nM. Molecule `Cc1cccnc1CN1CC2(C1)CN(C(=O)CC1CCCCC1)C2` [Cpd B082] returned a 50% effective concentration (EC50) of 27.9 nM. In the case of `Cc1cccnc1CN1CC2(C1)CN(C(=O)CC1CCC(F)(F)CC1)C2` [Cpd B083] it was 18.9 nM. `Cc1cccnc1CN1CC2(C1)CN(C(=O)C(C)(C)Oc1ccc(Cl)cc1)C2` [Cpd B085] gave a concentration for a half-maximal effect (EC50) of 3760 nM. `Cc1cccnc1CN1CC2(C1)CN(C(=O)c1cccc3cc[nH]c13)C2` [Cpd B086] registered an EC50 of 437 nM. The result for `Cc1cccnc1CN1CC2(C1)CN(C(=O)C(F)(F)c1ccc(F)cc1)C2` [Cpd B087] reads 1020 nM. Molecule `O=C(CCC1CCCCC1)N1CC2(CN(Cc3ccc(F)cc3)C2)C1` [Cpd B089] yielded a half-maximal effective concentration (EC50) of 2.93 nM. Molecule `O=C(Cc1ccc(OC(F)(F)F)cc1)N1CC2(CN(Cc3ccc(F)cc3)C2)C1` [Cpd B090] registered an EC50 of 9.15 nM. Molecule `O=C(Cc1cccc(C(F)(F)F)c1)N1CC2(CN(Cc3ccc(F)cc3)C2)C1` [Cpd B091] gave an EC50 of 4.56 nM. Molecule `N#Cc1ccc(CC(=O)N2CC3(CN(Cc4ccc(F)cc4)C3)C2)cc1` [Cpd B092] had an EC50 of 13.9 nM. The result for `O=C(Cc1ccccc1F)N1CC2(CN(Cc3ccc(F)cc3)C2)C1` [Cpd B093] reads 74.6 nM. `O=C(COc1ccc(F)cc1)N1CC2(CN(Cc3ccc(F)cc3)C2)C1` [Cpd B098] returned an EC50 of 71.5 nM. In turn, `O=C(N1CC2(CN(Cc3ccc(F)cc3)C2)C1)C(F)(F)c1ccc(F)cc1` [Cpd B099] registered an EC50 of 86 nM. The result for `Cc1nc(CN2CC3(C2)CN(C(=O)Cc2cccc(C(F)(F)F)c2)C3)cs1` [Cpd B100] reads 261 nM; that for `Cc1nc(CN2CC3(C2)CN(C(=O)Cc2ccc(F)c(C(F)(F)F)c2)C3)cs1` [Cpd B101], 76.6 nM; that for `Cc1nc(CN2CC3(C2)CN(C(=O)CC2CCC(F)(F)CC2)C3)cs1` [Cpd B102], 26.4 nM. Consider `Cc1nc(CN2CC3(C2)CN(C(=O)COc2ccc(F)cc2)C3)cs1` [Cpd B103], for which the midpoint of the response, the EC50, lay at 2000 nM.

`O=C(CC1CCC(F)(F)CC1)N1CC2(CN(Cc3ccc(F)cc3C(F)(F)F)C2)C1` [Cpd B104, 2-(4,4-difluorocyclohexyl)-1-(6-(4-fluoro-2-(trifluoromethyl)benzyl)-2,6-diazaspiro[3.3]heptan-2-yl)ethan-1-one]: a half-maximal effect (EC50) was put at 1.63 nM.

In turn, `O=C(CC1CCC(F)(F)CC1)N1CC2(CN(Cc3ccc(F)cc3F)C2)C1` [Cpd B105] registered a 50% effective concentration (EC50) of 2.6 nM. For `O=C(CC1CCC(F)(F)CC1)N1CC2(CN(Cc3ccc(Cl)cc3F)C2)C1` [Cpd B106], the 50% effective concentration (EC50) was < 0.19 nM. On to `O=C(CC1CCC(F)(F)CC1)N1CC2(CN(Cc3ccc(F)cc3Cl)C2)C1` [Cpd B107], for which the EC50 was < 0.19 nM. Consider `O=C(CC1CCC(F)(F)CC1)N1CC2(CN(Cc3ccccc3C(F)(F)F)C2)C1` [Cpd B108], for which the EC50 amounted to 2.58 nM.

Molecule `O=C(CC1CCC(F)(F)CC1)N1CC2(CN(Cc3ccc(C(F)(F)F)cc3)C2)C1` [Cpd B109] gave an EC50 of 12.1 nM. `O=C(CC1CCC(F)(F)CC1)N1CC2(CN(Cc3c(F)cccc3C(F)(F)F)C2)C1` [Cpd B110] gave an EC50 of 180 nM.

In the case of `O=C(CC1CCC(F)(F)CC1)N1CC2(CN(Cc3ccccc3OC(F)F)C2)C1` [Cpd B111], the midpoint of the response, the EC50, lay at 3.55 nM.

For the molecule `O=C(CC1CCC(F)(F)CC1)N1CC2(CN(Cc3ccc(Cl)cn3)C2)C1` [Cpd B113], the 50% effective concentration (EC50) worked out at 12.3 nM. In the case of `O=C(CC1CCC(F)(F)CC1)N1CC2(CN(Cc3ncccc3Cl)C2)C1` [Cpd B114] it was 13.6 nM. With `O=C(CC1CCC(F)(F)CC1)N1CC2(CN(Cc3ccc(F)cn3)C2)C1` [Cpd B115], the EC50 stood at 41.3 nM. `Cc1cnc(CN2CC3(C2)CN(C(=O)CC2CCC(F)(F)CC2)C3)s1` [Cpd B116] displayed a half-maximal effective concentration (EC50) of 72.2 nM. In turn, `Cc1nc(CN2CC3(C2)CN(C(=O)CC2CCC(F)(F)CC2)C3)c(Cl)s1` [Cpd B117] returned a 50% effective concentration (EC50) of 3.81 nM. The molecule `CCn1ccc(CN2CC3(C2)CN(C(=O)CC2CCC(F)(F)CC2)C3)n1` [Cpd B118] showed an EC50 of 27.8 nM. In turn, `Cn1cc(CN2CC3(C2)CN(C(=O)CC2CCC(F)(F)CC2)C3)cn1` [Cpd B119] registered an EC50 of 46 nM. `Cn1cc(Cl)c(CN2CC3(C2)CN(C(=O)CC2CCC(F)(F)CC2)C3)n1` [Cpd B120] gave a half-maximal effective concentration (EC50) of 4.27 nM. Regarding `Cc1c(Cl)c(CN2CC3(C2)CN(C(=O)CC2CCC(F)(F)CC2)C3)nn1C` [Cpd B121], the EC50 came to 12.5 nM. The result for `Cc1nn(C)c(CN2CC3(C2)CN(C(=O)CC2CCC(F)(F)CC2)C3)c1Cl` [Cpd B122] reads 3720 nM; that for `Cc1[nH]cnc1CN1CC2(C1)CN(C(=O)CC1CCC(F)(F)CC1)C2` [Cpd B124], 54.4 nM.

`Cc1nc(CN2CC3(C2)CN(C(=O)CC2CCC(F)(F)CC2)C3)c[nH]1` [Cpd B125] returned an EC50 of 705 nM. Consider `Cn1cnc(CN2CC3(C2)CN(C(=O)CC2CCC(F)(F)CC2)C3)c1` [Cpd B126], for which the midpoint of the response, the EC50, lay at 192 nM.

`Cc1nc(CN2CC3(C2)CN(C(=O)CC2CCC(F)(F)CC2)C3)co1` [Cpd B127] registered an EC50 of 67.6 nM. In the case of `O=C(OCC1CCOCC1)N1CC2(CN(Cc3ccc(F)cc3)C2)C1` [Cpd B128, (tetrahydro-2H-pyran-4-yl)methyl 6-(4-fluorobenzyl)-2,6-diazaspiro[3.3]heptane-2-carboxylate] it was 126 nM; in that of `O=C(OCC12CC(F)(C1)C2)N1CC2(CN(Cc3ccc(F)cc3)C2)C1` [Cpd B129], 97 nM. Molecule `O=C(OCc1ccc(Cl)cc1)N1CC2(CN(Cc3ccc(F)cc3)C2)C1` [Cpd B130] returned a half-maximal effective concentration (EC50) of 13.3 nM. In the case of `O=C(OCC1CCCC1)N1CC2(CN(Cc3ccc(F)cc3)C2)C1` [Cpd B131] it was 4.38 nM; in that of `O=C(OCC1CCC(F)(F)CC1)N1CC2(CN(Cc3ccc(F)cc3)C2)C1` [Cpd B132], 3.16 nM; in that of `O=C(OC1CCC(F)(F)CC1)N1CC2(CN(Cc3ccc(F)cc3)C2)C1` [Cpd B133], 2.9 nM. As to `COc1cccc(CN2CC3(C2)CN(C(=O)OC2CCC(F)(F)CC2)C3)c1` [Cpd B135], the EC50 is < 0.19 nM. In the case of `Cc1nc(CN2CC3(C2)CN(C(=O)OCC24CC(F)(C2)C4)C3)cs1` [Cpd B136], the EC50 turned out to be 671 nM.

Consider `Cc1cccnc1CN1CC2(C1)CN(C(=O)OCc1ccc(Cl)cc1)C2` [Cpd B137], for which the half-maximal effective concentration (EC50) stood at 49.3 nM. The result for `Cc1cccnc1CN1CC2(C1)CN(C(=O)OC1CCCC1)C2` [Cpd B138] reads 888 nM; that for `Cc1cccnc1CN1CC2(C1)CN(C(=O)OC1CCC(F)(F)CC1)C2` [Cpd B139], 20.6 nM.

In turn, `COc1cccc(CN2CC3(C2)CN(C(=O)Oc2ccc(F)cc2)C3)c1` [Cpd B140, 4-fluorophenyl 6-(3-methoxybenzyl)-2,6-diazaspiro[3.3]heptane-2-carboxylate] came in with a concentration giving a half-maximal response (EC50) of 1.5 nM.

The molecule `Cc1cccnc1CN1CC2(C1)CN(C(=O)Oc1ccc(Cl)cc1)C2` [Cpd B141] displayed a half-maximal effective concentration (EC50) of 2.57 nM.
